Counter-ions that a name gives are not always drawn. Like-named read-outs stand apart in the source and are kept apart here.
Key:
Assay type in all cases: biochemical
recombinant PRL-3 = molecular target: T1, recombinant PRL-3 (Homo sapiens, UniProt O75365); assay: In vitro phosphatase assay (DiFMUP hydrolysis), PRL-3; further: test concentration or dose not given here
T1 construct: 6xHis (N, cleaved yes); made in house; host or cells: E. coli One Shot BL21 Star

recombinant PRL-2 = molecular target: T2, recombinant PRL-2 (Homo sapiens, UniProt Q12974); assay: In vitro phosphatase assay (DiFMUP hydrolysis), PRL-2;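 further: PRL-2 activity read as DiFMUP hydrolysis after 20 min at room temperature with drug, enzyme first pre-reduced at 4 °C for 20 min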
T2 construct: 6xHis (N, cleaved yes); made in house; host or cells: E. coli One Shot BL21 Star
T2 sequence (Q12974 1-167): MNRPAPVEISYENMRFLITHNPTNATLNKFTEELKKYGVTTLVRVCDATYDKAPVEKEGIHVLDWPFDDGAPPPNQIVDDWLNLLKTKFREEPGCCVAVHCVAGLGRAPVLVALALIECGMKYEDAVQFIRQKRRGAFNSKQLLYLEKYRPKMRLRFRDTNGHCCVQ

recombinant PRL-1 = molecular target: T3, recombinant PRL-1 (Homo sapiens, UniProt Q93096); assay: In vitro phosphatase assay (DiFMUP hydrolysis), PRL-1; further: test concentration or dose not given here
T3 construct: 6xHis (N, cleaved yes); made in house; host or cells: E. coli One Shot BL21 Star
T3 sequence (Q93096 1-173): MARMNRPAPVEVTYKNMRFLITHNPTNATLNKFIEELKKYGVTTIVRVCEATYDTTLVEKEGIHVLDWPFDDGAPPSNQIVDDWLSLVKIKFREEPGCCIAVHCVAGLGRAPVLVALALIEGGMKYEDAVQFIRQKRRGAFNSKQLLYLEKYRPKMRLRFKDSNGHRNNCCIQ

[1] = FDA-approved drug screen, compared to DMSO
[2] = FDA-approved drug screen, activity compared to DMSO

T1 sequence (O75365 whole entry): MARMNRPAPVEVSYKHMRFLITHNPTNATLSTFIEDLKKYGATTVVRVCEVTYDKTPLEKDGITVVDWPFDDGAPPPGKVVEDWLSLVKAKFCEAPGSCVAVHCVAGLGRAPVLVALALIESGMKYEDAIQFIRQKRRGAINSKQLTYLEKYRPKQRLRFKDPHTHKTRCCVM

SMILES | % Phosphatase Activity (compared to DMSO) PRL-3 (recombinant PRL-3; [1]) | % Phosphatase Activity (compared to DMSO) PRL-2 (recombinant PRL-2; [1]) | % Phosphatase Activity (compared to DMSO) PRL-1 (recombinant PRL-1; [1]) | other results
CC[C@H]1OC(=O)[C@H](C)[C@@H](O[C@H]2C[C@@](C)(OC)[C@@H](O)[C@H](C)O2)[C@H](C)[C@@H](O[C@@H]2O[C@H](C)C[C@H](N(C)C)[C@H]2O)[C@](C)(O)C[C@@H](C)/C(=N\OCOCCOC)[C@H](C)[C@@H](O)[C@]1(C)O [Roxithromycin] | 70% | 105% | 93% | –
CCOc1ccc(Cc2cc([C@@H]3O[C@H](SC)[C@@H](O)[C@H](O)[C@H]3O)ccc2Cl)cc1 [Sotagliflozin (LX4211)] | – | – | – | % Phosphatase Activity (compared to DMSO) PRL-3 (recombinant PRL-3; [2]): 85%; % Phosphatase Activity (compared to DMSO) PRL-2 (recombinant PRL-2; [2]): 88%; % Phosphatase Activity (compared to DMSO) PRL-1 (recombinant PRL-1; [2]): 100%
CC(=O)O[C@@]12CO[C@@H]1C[C@H](O)[C@@]1(C)C(=O)[C@H](O)C3=C(C)[C@@H](OC(=O)[C@H](O)[C@@H](NC(=O)OC(C)(C)C)c4ccccc4)C[C@@](O)([C@@H](OC(=O)c4ccccc4)[C@H]21)C3(C)C [Docetaxel] | 65% | 88% | 87% | –
O=C(O)CCc1nc2ccccc2[nH]1 [Procodazole] | 86% | 85% | 98% | –
CC(C)(C)NC(=O)[C@H]1CC[C@H]2[C@@H]3CC[C@H]4NC(=O)C=C[C@]4(C)[C@H]3CC[C@]12C [Finasteride] | 81% | 87% | 93% | –
C[N+]1(C)CCCC(OC(=O)C(O)(c2ccccc2)c2ccccc2)C1 (stereo not drawn) [Mepenzolate Bromide] | 80% | 93% | 93% | –
CC(C)/N=c1\cc2n(-c3ccc(Cl)cc3)c3ccccc3nc-2cc1Nc1ccc(Cl)cc1 [Clofazimine] | 69% | 96% | 78% | –
Cc1c(OCC(F)(F)F)ccnc1C[S@@+]([O-])c1nc2ccccc2[nH]1 [Dexlansoprazole] | 93% | 100% | 95% | –
CN(C)[C@@H]1C(O)=C(C(N)=O)C(=O)[C@@]2(O)C(O)=C3C(=O)c4c(O)cccc4[C@@](C)(O)[C@H]3C[C@@H]12 [Tetracycline HCl] | – | – | – | % Phosphatase Activity (compared to DMSO) PRL-3 (recombinant PRL-3; [2]): 61%; % Phosphatase Activity (compared to DMSO) PRL-2 (recombinant PRL-2; [2]): 86%; % Phosphatase Activity (compared to DMSO) PRL-1 (recombinant PRL-1; [2]): 99%
Cc1cccc(C)c1OCC(=O)N[C@@H](Cc1ccccc1)[C@@H](O)C[C@H](Cc1ccccc1)NC(=O)[C@H](C(C)C)N1CCCNC1=O [Lopinavir] | 62% | 101% | 90% | –
Cl.NCCCC(N)(C(=O)O)C(F)F.O (stereo not drawn) [Eflornithine hydrochloride hydrate] | 103% | 84% | 91% | –
CC1(C)O[C@@H]2[C@@H](CO[C@@]3(COS(N)(=O)=O)OC(C)(C)O[C@@H]23)O1 [Topiramate] | – | – | – | % Phosphatase Activity (compared to DMSO) PRL-3 (recombinant PRL-3; [2]): 99%; % Phosphatase Activity (compared to DMSO) PRL-2 (recombinant PRL-2; [2]): 122%; % Phosphatase Activity (compared to DMSO) PRL-1 (recombinant PRL-1; [2]): 118%
CC1(C)OC(=O)NC1=O [5,5-Dimethyloxazolidine-2,4-dione] | 82% | 94% | 94% | –
Cl.N=C(N)N [Guanidine HCl] | 86% | 108% | 103% | –
FC(F)(F)c1ccc(CNc2ccc(Cc3c[nH]c4ncc(Cl)cc34)cn2)cn1 [Pexidartinib (PLX3397)] | 101% | 100% | 102% | –
COc1nc(N)nc2c1ncn2[C@@H]1O[C@H](CO)[C@@H](O)[C@@H]1O [Nelarabine] | – | – | – | % Phosphatase Activity (compared to DMSO) PRL-3 (recombinant PRL-3): 79%; % Phosphatase Activity (compared to DMSO) PRL-2 (recombinant PRL-2): 108%; % Phosphatase Activity (compared to DMSO) PRL-1 (recombinant PRL-1): 93%
CCn1c(=O)c(-c2cc[nH]n2)cc2c(C)nc(N)nc21 [Voxtalisib (XL765, SAR245409)] | – | – | – | % Phosphatase Activity (compared to DMSO) PRL-3 (recombinant PRL-3; [2]): 4492%; % Phosphatase Activity (compared to DMSO) PRL-2 (recombinant PRL-2; [2]): 5267%; % Phosphatase Activity (compared to DMSO) PRL-1 (recombinant PRL-1; [2]): 7254%
CC(=O)O[C@H]1C[C@@]2(C)[C@@H](C[C@@H](O)[C@H]3[C@@]4(C)CC[C@@H](O)[C@@H](C)[C@@H]4CC[C@@]32C)/C1=C(\CCC=C(C)C)C(=O)O [Fusidate Sodium] | 66% | 79% | 87% | –
O=S(=O)(O)CCS [Mesna] | 102% | 93% | 95% | –
CCOc1cc2ncc(C#N)c(Nc3ccc(OCc4ccccn4)c(Cl)c3)c2cc1NC(=O)/C=C/CN(C)C [Neratinib (HKI-272)] | 91% | 111% | 110% | –
CC1(C)O[C@@H]2C[C@H]3[C@@H]4CCC5=CC(=O)C=C[C@]5(C)[C@@]4(F)[C@@H](O)C[C@]3(C)[C@]2(C(=O)CO)O1 [Triamcinolone Acetonide] | – | – | – | % Phosphatase Activity (compared to DMSO) PRL-3 (recombinant PRL-3; [2]): 78%; % Phosphatase Activity (compared to DMSO) PRL-2 (recombinant PRL-2; [2]): 95%; % Phosphatase Activity (compared to DMSO) PRL-1 (recombinant PRL-1; [2]): 99%
CC(=O)c1c(C)c2cnc(Nc3ccc(N4CCNCC4)cn3)nc2n(C2CCCC2)c1=O.Cl [Palbociclib (PD-0332991) HCl] | 102% | 61% | 68% | –
CC(C)(C(=O)O)c1ccc(C(O)CCCN2CCC(C(O)(c3ccccc3)c3ccccc3)CC2)cc1 (stereo not drawn) [Fexofenadine HCl] | – | – | – | % Phosphatase Activity (compared to DMSO) PRL-3 (recombinant PRL-3): 89%; % Phosphatase Activity (compared to DMSO) PRL-2 (recombinant PRL-2): 92%; % Phosphatase Activity (compared to DMSO) PRL-1 (recombinant PRL-1): 109%
CO[C@H]1/C=C/O[C@@]2(C)Oc3c(C)c(O)c4c(O)c(c(/C=N/N5CCN(C6CCCC6)CC5)c(O)c4c3C2=O)NC(=O)/C(C)=C\C=C\[C@H](C)[C@H](O)[C@@H](C)[C@@H](O)[C@@H](C)[C@H](OC(C)=O)[C@@H]1C [Rifapentine] | 74% | 57% | 61% | –
CO[C@H]1C[C@@H]2CC[C@@H](C)[C@@](O)(O2)C(=O)C(=O)N2CCCC[C@H]2C(=O)O[C@H]([C@H](C)C[C@@H]2CC[C@@H](O)[C@H](OC)C2)CC(=O)[C@H](C)/C=C(\C)[C@@H](O)[C@@H](OC)C(=O)[C@H](C)C[C@H](C)/C=C/C=C/C=C/1C [Rapamycin (Sirolimus)] | 75% | 89% | 88% | –
Nc1nc(N)nc(-c2cc(Cl)ccc2Cl)n1 [Irsogladine] | 81% | 106% | 84% | –
Cn1cnc([N+](=O)[O-])c1Sc1ncnc2nc[nH]c12 [Azathioprine] | – | – | – | % Phosphatase Activity (compared to DMSO) PRL-3 (recombinant PRL-3): 74%; % Phosphatase Activity (compared to DMSO) PRL-2 (recombinant PRL-2): 107%; % Phosphatase Activity (compared to DMSO) PRL-1 (recombinant PRL-1): 96%

Reference: paper PMC8119466, “A screen of FDA-approved drugs identifies inhibitors of protein tyrosine phosphatase 4A3 (PTP4A3 or PRL-3)” (Scientific Reports, 2021)
